Experimental data taken from US20240158393A1, “PYRIDONE COMPOUNDS AND METHODS OF USE” (Exelixis, Inc., priority 2021, published 2024).

What was measured:
Human KDR = target: T1, Human KDR (Homo sapiens, UniProt P35968); test: Human KDR kinase assay (33P radiometric / HTRF KinEase); format: biochemical; details: protocols of Examples B-1 and/or B-2
T1 construct: Human KDR (residues K790-V1356, 55 nM); purchased Eurofins Pharma Discovery Services UK Limited (KinaseProfiler, B-1) and/or CarnaBio (B-2)
Procedure, shortened: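 Radiometric: KDR K790-V1356 (55 nM), MOPS pH 7.0, myelin basic protein, 10 μM [γ-33P]ATP, 40 min at room temperature, filter-bound 33P counted; nine half-log doses, top 1 μM. HTRF: KDR 790-1356, 1 μM biotinylated peptide, ATP at Km (4.0 μM), 40 min, 10 doses. IC50 from logistic fits.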

Human Mer = target: T2, Human Mer (Homo sapiens, UniProt Q12866); test: Human Mer kinase assay (33P radiometric / HTRF KinEase); format: biochemical; details: protocols of Examples C-1 and/or C-2
T2 construct: Human Mer (residues R557-E882 with H628Q and R794A, 0.7 nM); purchased Eurofins Pharma Discovery Services UK Limited (KinaseProfiler service)
T2 sequence (Q12866 557-882 limits assumed): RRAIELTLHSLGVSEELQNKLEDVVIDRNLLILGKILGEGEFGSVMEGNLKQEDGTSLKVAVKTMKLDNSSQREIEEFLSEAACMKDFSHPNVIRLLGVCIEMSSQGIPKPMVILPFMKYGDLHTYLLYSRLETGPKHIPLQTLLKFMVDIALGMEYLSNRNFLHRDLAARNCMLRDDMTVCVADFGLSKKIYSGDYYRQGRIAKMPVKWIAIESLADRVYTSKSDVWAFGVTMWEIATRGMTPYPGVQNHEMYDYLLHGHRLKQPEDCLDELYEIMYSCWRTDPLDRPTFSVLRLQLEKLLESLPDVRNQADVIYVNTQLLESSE
Procedure, shortened: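 Two formats yield IC50 values. HTRF KinEase used MER residues 528-999 with ATP at Km (40 μM), 1 μM biotin-peptide, 60 min RT, […], 10 concentrations. 33P filter assay used 0.7 nM Mer R557-E882 (H628Q/R794A), 10 μM ATP, 250 μM peptide, 40 min RT, top 1 μM.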

T1 sequence (P35968 790-1356): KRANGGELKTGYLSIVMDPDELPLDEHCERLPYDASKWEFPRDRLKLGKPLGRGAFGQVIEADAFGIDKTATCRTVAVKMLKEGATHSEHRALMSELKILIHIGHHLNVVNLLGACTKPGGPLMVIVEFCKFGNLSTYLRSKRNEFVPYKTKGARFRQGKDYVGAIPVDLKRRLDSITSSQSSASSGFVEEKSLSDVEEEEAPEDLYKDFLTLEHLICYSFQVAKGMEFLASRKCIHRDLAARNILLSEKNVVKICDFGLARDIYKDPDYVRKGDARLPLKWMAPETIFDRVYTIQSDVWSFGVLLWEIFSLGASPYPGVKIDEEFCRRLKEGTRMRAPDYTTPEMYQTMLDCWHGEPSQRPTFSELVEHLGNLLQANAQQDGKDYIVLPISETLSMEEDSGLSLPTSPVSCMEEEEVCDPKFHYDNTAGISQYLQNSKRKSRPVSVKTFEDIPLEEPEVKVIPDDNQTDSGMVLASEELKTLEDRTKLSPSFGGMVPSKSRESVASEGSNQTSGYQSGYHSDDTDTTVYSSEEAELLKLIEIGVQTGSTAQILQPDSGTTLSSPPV

IC50 (Human KDR) | IC50 (Human Mer) | SMILES
> 0.3 µM | ≤ 0.1 µM | COc1cc2nccc(Oc3ccc(NC(=O)c4c5n(cc(C6=CCCCC6)c4=O)CCOC5)cc3)c2nc1OC [Compound G1-5, 7-(Cyclohexen-1-yl)-N-[4-[(6,7-dimethoxy-1,5-naphthyridin-4-yl)oxy]phenyl]-8-oxo-3,4-dihydro-1H-pyrido[2,1-c][1,4]oxazine-9-carboxamide]
> 0.3 µM | ≤ 0.1 µM | COc1cc2nccc(Oc3ccc(NC(=O)c4c5n(cc(C6=CCOCC6)c4=O)CCOC5)cc3)c2nc1OC [Compound G1-8, 7-(3,6-Dihydro-2H-pyran-4-yl)-N-[4-[(6,7-dimethoxy-1,5-naphthyridin-4-yl)oxy]phenyl]-8-oxo-3,4-dihydro-1H-pyrido[2,1-c][1,4]oxazine-9-carboxamide]
